Values after ≈ are worked out from the molar mass of the structure shown.
What was measured:
Type in all cases: functional
[1] = test system: Mycobacterium tuberculosis variant bovis BCG; assay: Antimycobacterial activity against Mycobacterium bovis BCG ATCC 35734 measured on 12th day by nitrate reductase assay; details: ATCC 35734, 288 h, time 12 day
[2] = test system: Mycobacterium tuberculosis; assay: Antimycobacterial activity against multidrug resistant Mycobacterium tuberculosis measured up to 2 weeks; details: 336 h, time weeks <=2
[3] = test system: Mycobacterium tuberculosis; assay: Antimycobacterial activity against ethambutol/pyrazinamide/kanamycin/streptomycin/ofloxacin/moxifloxacin/levofloxacin resistant Mycobacterium tuberculosis measured up to 2 weeks; details: 336 h, time weeks <=2
[4] = test system: Mycobacterium tuberculosis; assay: Antimycobacterial activity against extensively drug resistant Mycobacterium tuberculosis measured up to 2 weeks; details: 336 h, time weeks <=2
[5] = test system: Mycobacterium tuberculosis variant bovis BCG; assay: Antimycobacterial activity against Mycobacterium bovis BCG ATCC35743 by nitrate reductase assay

| SMILES | MIC [1] [µg/mL] | other results |
| --- | --- | --- |
| O=C1CSC(c2ccc(OCc3cc4ccccc4n4nnnc34)cc2)N1c1ccccc1 (stereo not drawn) | 9.13 (≈ 20.1 µM) |  |
| CCOc1ccc(N2C(=O)CSC2c2ccc(OCc3cc4ccccc4n4nnnc34)cc2)cc1 (stereo not drawn) | 7.09 (≈ 14.2 µM) |  |
| O=C(O)CCCCCC1NC(=O)CS1 (stereo not drawn) |  | MIC [2]: 0.6 µM (≈ 0.13 µg/mL); MIC [3]: 0.2 µM (≈ 0.0435 µg/mL); MIC [4]: 0.096 µM (≈ 0.0209 µg/mL) |
| O=C1CSC(c2ccc(OCc3cc4ccccc4n4nnnc34)cc2)N1c1ccc([N+](=O)[O-])cc1 (stereo not drawn) | 3.8 (≈ 7.62 µM) |  |
| O=C1NC(=S)S/C1=C\c1ccc([N+](=O)[O-])cc1 |  | IC90 [5]: 25.7 µg/mL (≈ 96.5 µM) |
| NC(=O)c1cnccn1 [PYRAZINAMIDE] | 20 (≈ 162 µM) |  |
